# Source: patent US9969719B2, “Substituted 2-hydrogen-pyrazole derivative serving as anticancer drug” (CHIA TAI TIANQING PHARMACEUTICAL GROUP CO., LTD., priority 2015, dated 2018)
# Where two headings read alike, the source gives them in different places.
# Columns and labels:
# [1] = molecular target: T1, CDK4/cyclin D1 (Homo sapiens, UniProt P11802); test: CDK4/cyclin D1 Lance Ultra enzyme assay; format: biochemical; conditions: 350 μM ATP, 180 minutes
# T1 construct: purchased Life Technologies
# T1 sequence (P11802 whole entry): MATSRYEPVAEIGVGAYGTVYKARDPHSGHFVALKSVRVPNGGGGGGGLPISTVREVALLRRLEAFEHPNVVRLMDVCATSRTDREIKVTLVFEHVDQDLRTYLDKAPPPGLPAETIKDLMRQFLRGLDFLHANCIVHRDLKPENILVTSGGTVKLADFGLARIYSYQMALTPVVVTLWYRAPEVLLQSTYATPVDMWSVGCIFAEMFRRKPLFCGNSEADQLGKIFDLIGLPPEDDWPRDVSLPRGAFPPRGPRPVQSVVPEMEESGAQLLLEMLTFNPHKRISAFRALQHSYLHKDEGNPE
# T1 sequence (P24385 whole entry partner): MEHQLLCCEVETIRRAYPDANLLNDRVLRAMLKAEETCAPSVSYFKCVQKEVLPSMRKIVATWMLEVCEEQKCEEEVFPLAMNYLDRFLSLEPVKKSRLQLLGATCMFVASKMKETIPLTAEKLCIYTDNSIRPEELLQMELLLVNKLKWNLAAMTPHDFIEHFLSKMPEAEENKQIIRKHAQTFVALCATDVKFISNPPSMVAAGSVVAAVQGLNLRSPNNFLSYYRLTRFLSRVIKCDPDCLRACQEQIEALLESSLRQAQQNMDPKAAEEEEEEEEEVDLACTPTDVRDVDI
# Description: (§1) The experimental materials included CDK2/cyclin A, CDK4/cyclin D1, CDK6/cyclin D1 (Life Technologies); ULight-labeled polypeptide substrates, i.e., ULight-4E-BP1 and ULight-MBP (PerkinElmer); the europium-labeled antibody against anti-myelin basic protein and europium-labeled rabbit antibody (PerkinElmer); and Envision® Multilabel Plate Reader (PerkinElmer) used for signal detection.
# (§2) The compounds to be tested were diluted three times so as to be at ten gradually varied concentrations.
# (§3) The dilutions of the compounds were dissolved in enzyme buffer, respectively. The components of the buffer included 50 mM hydroxyethylpiperazine ethanesulfonic acid solution (pH 7.5), 1 mM ethylenediaminetetraacetic acid, 10 mM magnesium chloride, 0.01% Brij-35, and 2 mM dithiothreitol. After the reaction started, the OptiPlate 384-well plate was sealed with top heat-sealing film TopSeal-A and incubated at room temperature for 180 minutes. • The Enzyme Reaction System of CDK6/Cyclin D1
# (§4) The stop buffer of the enzyme reaction was prepared by dissolving EDTA in a one-fold dilution of the assay buffer. The reaction was terminated at room temperature for 5 minutes. To each of the reaction systems of CDK2/cyclin A, CDK4/cyclin D1 and CDK6/cyclin D1 was added 5 μL assay mixture (provided with antibody the europium-labeled against anti-myelin basic protein and the europium-labeled rabbit antibody, respectively). They were incubated at room temperature for 60 minutes. The reaction signals were detected by the EnVision instrument according to the principle of time-resolved fluorescence resonance energy transfer.
# [2] = Study of brain permeability after oral administration; format: in vivo, SD rats
# Description: SD rats were used as the test animals.
# Twelve healthy 7- to 9-week-old adult male SD rats were purchased from Shanghai Slack Laboratory Animal Co., Ltd. A proper amount of the test compound was weighed to prepare a 0.5% methylcellulose suspension at 1 mg/mL. The rats received a single oral dose of 10 mg/kg. 0.5 h, 2 h, 8 h, and 24 hours after the administration, 3 rats were respectively killed, and their whole blood and brain tissues were collected. The plasma was prepared by centrifuging the whole blood (3000 g, 15 minutes, 4° C.). The samples of brain homogenate were prepared by mixing the brain tissues with a mixture of methanol and a phosphate buffer (methanol:phosphate buffer=1:2) as homogenate at a ratio of 5:1. The drug concentration of each sample was determined by LC/MS/MS, and AUC was calculated to evaluate the exposure.
# [3] = molecular target: T2, CDK2/cyclin A (Homo sapiens, UniProt P24941); test: CDK2/cyclin A Lance Ultra enzyme assay; format: biochemical; conditions: 25 μM ATP, 60 minutes
# T2 construct: purchased Life Technologies
# Description: as §1, §2
# as §3, with “The gradient dilutions of” for “The dilutions of”, “temperature for 60 minutes. •” for “temperature for 180 minutes. •”, “System of CDK4/Cyclin D1” for “System of CDK6/Cyclin D1”
# as §4
# [4] = system: MCF-7 cells; test: MCF-7 cell proliferation (CellTiter-Glo, 6 days); format: cell-based, human; conditions: for IC50: Homo sapiens, MCF7, proliferation, 6 days; for MCF-7/MDA-MB-436: ratio of the proliferation IC50 values
# Description: EnVision® Multilabel Plate Reader (PerkinElmer) was used.
# MCF-7 cells were inoculated in a black 384-well plate by adding 45 μL of the cell suspension (containing 200 of MCF-7 cells) to each of the wells. The plate was incubated overnight in a carbon dioxide incubator.
# (§5) A duplicate well test was performed. The medium was added to the middle plate in an amount of 49 μL per well. The gradient dilutions of the compounds were transferred in an amount of 1 μL per well to the middle plate at the corresponding positions, and the mixture was mixed and transferred to the cell plate in an amount of 5 μL per well. The cell plate was incubated in a carbon dioxide incubator for 6 days. Promega CellTiter-Glo reagent was added to the cell plate in an amount of 25 μL per well. The cell plate was incubated at room temperature for 10 minutes to stabilize the luminescence signal. EnVision® Multilabel Plate Reader (PerkinElmer) was used for signal detection.
# [5] = system: human breast cancer cell line MCF-7; format: in vivo
# Description: The in vivo pharmacodynamic study was carried out in human-based tumor cell line-derived xenografted (CDX) BALB/c nude mice, in which were subcutaneously implanted human breast cancer cell line MCF-7.
# . All the cages, matts and water were disinfected before use. All the animals had free access to a standard certified commercial laboratory diet. A total of 100 mice were purchased from Shanghai BK Laboratory Animal Co., LTD for study. An estrogen tablet ([…], sustained release within 60 days) was subcutaneously implanted in the left next abdomen of each mice. After 3 days, the tumor cells (10×10^6 in 0.2 mL of phosphate buffer) were subcutaneously implanted in the right next abdomen of each mice for the tumor growth. The administration started when the average tumor volume reached about 150-200 mm^3. The test compounds were orally administered daily, the doses were shown as Table 5. The tumor volumes were measured with a two-dimensional caliper every three days, the volumes were expressed in cubic millimeters and calculated by the formula V=0.5a×b^2, wherein a and b were the major diameter and minor diameter of the tumor, respectively. Antitumor efficacy was determined by dividing an average increase of the tumor volumes of the animals treated with the compounds by an increase of the tumor volumes of the untreated animals.
# [6] = system: MDA-MB-436 cells; test: MDA-MB-436 cell proliferation (CellTiter-Glo); format: cell-based; conditions: Homo sapiens
# Description: RPMI 1640 medium, fetal bovine serum, penicillin/streptomycin were purchased from Promega (Madison, Wis.). The MCF-7 cell line and the MDA-MB-436 cell line were purchased from the European Collection of Authenticated Cell Cultures (ECACC). EnVision® Multilabel Plate Reader (PerkinElmer) was used.
# as §5, with “The compounds to be tested were diluted three times using Bravo to the tenth concentration, i.e., diluted from 10 μM to 0.508 nM. A” for “A”
# The IC50 values were obtained by curve fitting using four parameters (obtained from the 205 mode in XLFIT5, iDBS). Table 1 provides the inhibitory activities of the compounds of the invention against the proliferation of MCF-7 cells and MDA-MB-436 cells.
# [7] = Caco-2 cell bi-directional permeability assessment; conditions: human, Caco-2, pH 7.4
# Description: (§6) The standard experimental conditions were as follows: • Test concentration: 2 μM (DMSO≤1%); • Number of replication: n=2; • Direction: bi-directional transportation, including two directions, i.e., A→B and B→A; • Incubation time: single time point, 2 hours; • Transport buffer: HBSS, pH 7.4; • Incubation conditions: 37° C., 5% CO2.
# (§7) After the incubation, sample solutions taken from the dosing wells and the receiving wells were immediately mixed with a cold acetonitrile solution containing the internal standard. Concentrations of the test compounds in all samples (including the initial dosing solutions, the supernatants of the dosing wells and the receiving solutions) were determined by a LC/MS/MS method. The apparent permeability coefficients, the efflux ratios and other parameters were calculated.
# [8] = system: Caco-2 monolayer cells; test: Caco-2 cell bi-directional permeability assessment
# Description: as §6, §7
# [9] = molecular target: T3, CDK6/cyclin D1 (Homo sapiens, UniProt Q00534); test: CDK6/cyclin D1 Lance Ultra enzyme assay; format: biochemical; conditions: 250 μM ATP, 180 minutes
# T3 construct: purchased Life Technologies
# T3 sequence (Q00534 whole entry): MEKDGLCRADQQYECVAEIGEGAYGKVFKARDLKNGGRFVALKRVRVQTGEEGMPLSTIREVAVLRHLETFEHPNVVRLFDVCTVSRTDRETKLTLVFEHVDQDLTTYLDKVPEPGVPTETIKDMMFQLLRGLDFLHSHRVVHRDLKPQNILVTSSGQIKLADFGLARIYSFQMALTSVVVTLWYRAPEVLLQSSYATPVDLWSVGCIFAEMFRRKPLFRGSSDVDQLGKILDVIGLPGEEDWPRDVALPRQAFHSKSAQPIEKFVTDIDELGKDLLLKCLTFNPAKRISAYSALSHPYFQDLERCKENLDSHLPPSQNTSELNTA
# T3 sequence (P24385 whole entry partner): as the sequence (P24385 whole entry partner) above
# Description: as §1, §2
# as §3, with “minutes.” for “minutes. • The Enzyme Reaction System of CDK6/Cyclin D1”
# as §4
# [10] = in vitro; conditions: human, Caco-2, pH 7.4
# Description: as §6, §7
# [11] = system: Caco-2 monolayer cells
# Description: as §6, §7
# [12] = 10 mg/kg oral, time point 0.5 h
# [13] = 50.0 mg/kg orally daily, 7th day
# [14] = 50.0 mg/kg orally daily, 14th day
# [15] = 50.0 mg/kg orally daily, 21st day
# [16] = human, Caco-2, 2 h, 2 μM, pH 7.4
SMILES,"Exposure in brain [2, 12]","Exposure in brain ([2]; 10 mg/kg oral, time point 2 h)","Exposure in brain ([2]; 10 mg/kg oral, time point 8 h)",IC50 [4],MCF-7/MDA-MB-436 [4],"Tomor volumes ([5]; 50.0 mg/kg orally daily, 0 day)","Tomor volumes [5, 13]","Tomor volumes [5, 14]","Tomor volumes [5, 15]",IC50 [6],"Papp A→B at 2 h, 2 μM [7]","Papp B→A at 2 h, 2 μM [7]",Classification Permeability ([8]; Caco-2),other results
"CC(C)c1c2cc(-c3nc(Nc4ccc(N5CCN(CCC#N)CC5)cn4)ncc3F)ccc2nn1C [Example 7, 3-[4-[6-[[5-fluoro-4-(3-isopropyl-2-methyl-2H-indazol-5-yl)pyrimidin-2-yl]amino]-3-pyridyl]piperazin-1-yl]propanenitrile]",1564 nmol/kg,2922 nmol/kg,307 nmol/kg,37.2 nM,31.1,187 mm^3,271 mm^3,318 mm^3,350 mm^3,1160 nM,6.55 ×10⁻⁶ cm/s,3.38 ×10⁻⁶ cm/s,High,"IC50 [1]: 1.82 nM; exposure in brain after 8 hours ([2]; 10 mg/kg oral, in words): significantly decreased; exposure in brain tissue compared with the reference compounds ([2]; rat, versus Palbociclib and LY2835219, in words, b797: 0.5 hour and 2 hour): higher exposure; IC50 [3]: 12 nM; selectivity in inhibiting the proliferation of estrogen receptor positive breast cancer cells (MCF-7/MDA-MB-436) ([4]; versus LY2835219, in words): higher selectivity; inhibitory activities against the proliferation of MCF-7 cells compared with the reference compounds ([4]; versus Palbociclib and LY2835219, in words): higher inhibitory activities; antitumor activities in the CDX model of MCF-7 breast cancer ([5]; in words): significant antitumor activities; efflux ratio at 2 h, 2 μM [7]: 0.52; Classification Substrates of efflux transporters ([8]; Caco-2): Unlikely; permeability compared with the reference compounds ([8]; Caco-2, versus Palbociclib and LY2835219, in words): higher permeability; IC50 [9]: 4.52 nM"
"CCN1CCN(Cc2ccc(Nc3ncc(F)c(-c4cc(F)c5nc(C)n(C(C)C)c5c4)n3)nc2)CC1 [LY2835219, Abemaciclib, reference compound]",62 nmol/kg,525 nmol/kg,774 nmol/kg,,17.3,187 mm^3,261 mm^3,315 mm^3,443 mm^3,1030 nM,2.69 ×10⁻⁶ cm/s,6.34 ×10⁻⁶ cm/s,High,
"CC(=O)c1c(C)c2cnc(Nc3ccc(N4CCNCC4)cn3)nc2n(C2CCCC2)c1=O [Palbociclib, reference compound]",80 nmol/kg,329 nmol/kg,184 nmol/kg,87 nM,113,,,,,9840 nM,,,,"Papp A→B at 2 h, 2 μM [10]: 0.85 ×10⁻⁶ cm/s; Papp B→A at 2 h, 2 μM [10]: 16.5 ×10⁻⁶ cm/s; Tomor volumes ([5]; 45.0 mg/kg orally daily, 0 day): 187 mm^3; Tomor volumes ([5]; 45.0 mg/kg orally daily, 7th day): 264 mm^3; Tomor volumes ([5]; 45.0 mg/kg orally daily, 14th day): 387 mm^3; Tomor volumes ([5]; 45.0 mg/kg orally daily, 21st day): 633 mm^3; tolerability of high doses in the animals ([5]; mouse, in vivo): intolerable; Classification Permeability ([11]; Caco-2): Medium; Average apparent permeability coefficient A to B [11, 16]: 9.18 10^−6 cm/s; Average apparent permeability coefficient B to A [11, 16]: 7.51 10^−6 cm/s"
